# Data as given in patent US6423317B1, “Method of killing protozoa” (S.S. Steiner, Inc., priority 2001, dated 2002).
# How the values were obtained:
# [1] = tested on: P. caudatum; test: Protozoicidal effect, time for 100% kill; type: cell-based, Paramecium caudatum; details: for Time of death (100% kill): observation time 24 hours
# Method: (§1) […] protozoa had stopped moving. The observation time was 24 hours. In order to determine whether the protozoa had been killed rather than only temporarily inactivated, the organisms in hop solution were centrifuged, the supernatant removed, and the protozoa placed into fresh medium in which hop was not present. When there was no revival of the organisms, it was concluded that they were dead rather than only temporarily inactivated.
# [2] = tested on: P. caudatum; test: Co-action of hop resins with carbon dioxide, time for 100% kill; type: cell-based, Paramecium caudatum; details: carbon dioxide bubbled into the medium for 30 seconds before inoculation
# Method: (§2) Different concentrations of the alpha and beta resins of hop were prepared in 10 ml. of medium, as identified in Table 1, and poured into plastic tissue culture flasks of 25 cm. growth area with screw caps, obtained from Falcon, Oxnard, Calif. Carbon dioxide was then bubbled through the medium in the bottles at a rapid rate for a period of 30 seconds. An average of ten organisms were added to each flask and examined directly under the stereomicroscope. The times that were taken for a 100% kill of the organisms, that is, when all of the organisms ceased any motion, were recorded in minutes and are tabulated in Tables 7 and 8.
# [3] = tested on: P. papillata; test: Protozoicidal effect, time for 100% kill; type: cell-based, Polytomella papillata; details: observation time 24 hours
# Method: as §1
# [4] = tested on: Chaos sp.; test: Co-action of hop resins with carbon dioxide; type: cell-based
# Method: as §2
# The same tests but at greater resin concentrations were carried out on an amoeba strain, Chaos sp., and the results recorded in Table 8.
# [5] = tested on: Euglena sp.; test: Protozoicidal effect, time for 100% kill; type: cell-based; details: observation time 24 hours
# Method: as §1
# [6] = tested on: T. pyriformis; test: Protozoicidal effect, time for 100% kill; type: cell-based, Tetrahymena pyriformis; details: observation time 24 hours
# Method: as §1
# [7] = tested on: Amoeba proteus; test: Protozoicidal effect, time for 100% kill; type: cell-based; details: 500 μg/ml, observation time 24 hours
# Method: (§3) The protozoicidal effect of various hop compounds was determined by preparing different concentrations of hop solution in 10 ml. of medium. The solution was poured into 6×4 multiwell dishes—3424 Mark 2 (Coster, Cambridge, Mass.). An average of 10 microorganisms was added to each well and observed under the stereomicroscope. Results were expressed as the time in minutes for a 100% kill, which was presumed when all of the
# (§4) protozoa had stopped moving. The observation time was 24 hours.
# (§5) In order to determine whether the protozoa had been killed rather than only temporarily inactivated, the organisms in hop solution were centrifuged, the supernatant removed, and the protozoa placed into fresh medium in which hop was not present. When there was no revival of the organisms, it was concluded that they were dead rather than only temporarily inactivated.
# (§6) Tests were conducted to determine the effectiveness of the alpha and beta resins against amoebae.
# [8] = tested on: Chaos sp.; test: Protozoicidal effect, time for 100% kill; type: cell-based; details: for Time of death (100% kill): observation time 24 hours
# Method: as §3, §4, §5, §6
# [9] = 0.2 μg/ml, listed as beta resin
# [10] = 0.5 μg/ml, listed as beta resin
compound,measurement,setting,value
"CC(C)=CCC1=C(O)C(C(=O)CC(C)C)=C(O)C(CC=C(C)C)(CC=C(C)C)C1=O [Beta Resin, lupulone]",Time of death (100% kill),[1]; 0.05 μg/ml,not sensitive
same,Time for death to occur,[1]; 0.1 ug/ml,one
same,Time of death (100% kill),[1]; 0.1 μg/ml,60 min
same,Time of death (100% kill),[1]; 0.2 μg/ml,5 min
same,Time of death (100% kill),[1]; [9],≤ 5 min
same,Time of death (100% kill),[1]; 0.5 μg/ml,3.5 min
same,Time of death (100% kill),[1]; [10],five
same,Time of death (100% kill),[1]; 1.0 μg/ml,3.0 min
same,Time of death (100% kill),[1]; 2.0 μg/ml,2.0 min
same,"Time of death (100% kill), resin + CO2",[2]; resin 0.05 μg/ml,14 min
same,"Time of death (100% kill), resin + CO2",[2]; resin 0.1 μg/ml,5 min
same,Time of death (100% kill),[3]; 0.05 μg/ml,not sensitive
same,Time of death (100% kill),[3]; 0.2 μg/ml,40 min
same,Time of death (100% kill),[3]; [9],≤ 40 min
same,Time of death (100% kill),[3]; 0.5 μg/ml,5 min
same,Time of death (100% kill),[3]; 1.0 μg/ml,3.5 min
same,Time of death (100% kill),[3]; 2.0 μg/ml,2.0 min
same,Effectiveness in killing with prior carbon dioxide treatment,"[4]; resin 10 ug/ml, prior carbon dioxide treatment",both were effective
same,Effectiveness in killing with prior carbon dioxide treatment,"[4]; resin 50 ug/ml, carbon dioxide pretreatment",both were effective with carbon dioxide pretreatment
same,Effectiveness in killing with prior carbon dioxide treatment,"[4]; resin 100 ug/ml, carbon dioxide pretreatment",all were most effective with pretreatment
same,Time of death (100% kill),[5]; 0.05 μg/ml,not sensitive
same,Time of death (100% kill),[5]; 0.5 μg/ml,2.5 min
same,Time of death (100% kill),[5]; 1.0 μg/ml,1.5 min
same,Time of death (100% kill),[5]; 2.0 μg/ml,1.2 min
same,Time of death (100% kill),[6]; 0.05 μg/ml,not sensitive
same,Time of death (100% kill),[6]; 0.2 μg/ml,15 min
same,Time of death (100% kill),[6]; [9],≤ 15 min
same,Time of death (100% kill),[6]; 0.5 μg/ml,3 min
same,Time of death (100% kill),[6]; [10],five
same,Time of death (100% kill),[6]; 1.0 μg/ml,1.5 min
same,Time of death (100% kill),[6]; 2.0 μg/ml,1.0 min
same,Time of death (100% kill),"[6]; 2.0 μg/ml, listed as beta resin",two
same,Time of death (100% kill),[7],180 min
same,Time of death (100% kill),[8]; 10 μg/ml,neither the alpha nor beta resins were effective alone
same,Time of death (100% kill),[8]; 50 μg/ml,60 min
same,Time of death (100% kill),"[8]; 50 μg/ml, listed as beta resin",effective per se
same,Time of death (100% kill),[8]; 100 μg/ml,30 min
same,Time of death (100% kill),"[8]; 100 μg/ml, listed as beta resin",all were effective
same,Time of death (100% kill),[8]; 200 μg/ml,30 min
same,Time of death (100% kill),[8]; 500 μg/ml,25 min
"COc1cc(O)c(CC=C(C)C)c(O)c1C(=O)/C=C/c1ccc(O)cc1 [Xanthohumol, xanthohumol]",Time of death (100% kill),[1]; 0.05 μg/ml,10 min
same,Time of death (100% kill),"[1]; 0.05 μg/ml, listed as xanthohumol",ten
same,Time of death (100% kill),[1]; 0.1 μg/ml,5 min
same,Time of death (100% kill),[1]; 1.0 μg/ml,2.5 min
same,Concentration effective in killing,[8],≥ 5 µg/mL
same,Time of death (100% kill),[8]; 5.0 μg/ml,15 min
same,Time of death (100% kill),[8]; 10 μg/ml,11 min
"O=C=O [Carbon dioxide, carbon dioxide]","Time of death with carbon dioxide, without addition of hop",[2]; no hop,*Carbon dioxide had been bubbled into the medium for 30 seconds previous to inoculation and death without addition of hop occurred between 40-50 minutes.
